Measured values published in US6472348B1, “Pyridone derivatives and herbicides” (Kumiai Chemical Industry Co., Ltd., priority 1996, dated 2002).

Legend:
barnyardgrass (Ec) [1] = test: Test Example 1: herbicidal effects by paddy field soil treatment; format: in vivo; conditions: 100 g of the active ingredient per 10 ares, 21st day after the application, index 0-5 of Table 47;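 also: grade of growth control; 5 = at least 90%; 4 = 70 to 90%; 3 = 50 to 70%; 2 = 30 to 50%; 1 = 10 to 30%; 0 = under 10%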
Outline: (§1)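 Scoring of herbicidal effect came 21 days after application of 100 g active ingredient per 10 ares to flooded (3 cm) paddy-soil pots sown with barnyardgrass, monochoria and bulrush, kept in a greenhouse.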

bulrush (Sc) = test: as above; format: in vivo; conditions: 100 g of the active ingredient per 10 ares, 21st day after the application, index 0-5 of Table 47;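 also: grade of growth control; 5 = at least 90%; 4 = 70 to 90%; 3 = 50 to 70%; 2 = 30 to 50%; 1 = 10 to 30%; 0 = under 10%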
Outline: as §1

monochoria (Mo) = test: as above; format: in vivo; conditions: 100 g of the active ingredient per 10 ares, 21st day after the application, index 0-5 of Table 47;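 also: grade of growth control; 5 = at least 90%; 4 = 70 to 90%; 3 = 50 to 70%; 2 = 30 to 50%; 1 = 10 to 30%; 0 = under 10%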
Outline: as §1

Digitaria ciliaris (Di) = test: Test Example 2: herbicidal effects by upland field soil treatment; format: in vivo; conditions: 100 g of the active ingredient per 10 ares, evaluated on the 21st day after application;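 also: grade of growth control; 5 = at least 90%; 4 = 70 to 90%; 3 = 50 to 70%; 2 = 30 to 50%; 1 = 10 to 30%; 0 = under 10%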
From the text: (§2) (Test on Herbicidal Effects by Upland Field Soil Treatment)

barnyardgrass (Ec) [2] = test: as above; format: in vivo; conditions: 100 g of the active ingredient per 10 ares, evaluated on the 21st day after application
From the text: as §2

[3] = test system: common lambsquarters (Ch); test: as above; format: in vivo; conditions: 100 g of the active ingredient per 10 ares, evaluated on the 21st day after application
From the text: as §2

pale smartweed (Po) [4] = test: as above; format: in vivo; conditions: 100 g of the active ingredient per 10 ares, evaluated on the 21st day after application
From the text: as §2

rice flatsedge (Ci) [5] = test: as above; format: in vivo; conditions: 100 g of the active ingredient per 10 ares, evaluated on the 21st day after application
From the text: as §2

slender amaranth (Am) [6] = test: as above; format: in vivo; conditions: 100 g of the active ingredient per 10 ares, evaluated on the 21st day after application
From the text: as §2

Diaitaria ciliaris (Di) = test: Test Example 3: herbicidal effects by upland field foliage treatment; format: in vivo; set-up: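 grade of growth control; 5 = at least 90%; 4 = 70 to 90%; 3 = 50 to 70%; 2 = 30 to 50%; 1 = 10 to 30%; 0 = under 10%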; conditions: 100 g active ingredient per 10 ares, evaluated 14th day after treatment
Outline: (§3)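 Weeds were sown in sand-filled pots (surface area: 120 cm^2), covered with soil and grown in a greenhouse for 2 weeks before foliar treatment. Plants then stayed in the greenhouse, and herbicidal effect was scored against graded standards on the 14th day after treatment.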

barnyardgrass (Ec) [7] = test: as above; format: in vivo; set-up: scale not given here; conditions: 100 g active ingredient per 10 ares, evaluated 14th day after treatment
Outline: as §3

[8] = test system: common lambsquarters (Ch); test: as above; format: in vivo; set-up: scale not given here; conditions: 100 g active ingredient per 10 ares, evaluated 14th day after treatment
Outline: as §3

pale smartweed (Po) [9] = test: as above; format: in vivo; set-up: scale not given here; conditions: 100 g active ingredient per 10 ares, evaluated 14th day after treatment
Outline: as §3

rice flatsedge (Ci) [10] = test: as above; format: in vivo; set-up: scale not given here; conditions: 100 g active ingredient per 10 ares, evaluated 14th day after treatment
Outline: as §3

slender amaranth (Am) [11] = test: as above; format: in vivo; set-up: scale not given here; conditions: 100 g active ingredient per 10 ares, evaluated 14th day after treatment
Outline: as §3

cotton (Go) = test: Test Example 4: crop plant selectivity by upland field soil treatment (cotton), phytotoxicity; format: in vivo; set-up: scale not given here; conditions: dose 6.3 g ai/10 a, evaluated 21st day after application
Protocol: (§4) (Test on Crop Plant Selectivity by Upland Field Soil Treatment)
(§5) In a plastic pot (surface area: 600 cm^2) filled with sand, cotton (Go), Diaitaria ciliaris (Di), green foxtail (Se), pale smartweed (Po), slender amaranth (Am), common lambsquarters (Ch) and China jute (Ab) were sown and covered with soil. […] The plants were then cultured in a green house, and the evaluation of the herbicidal effects and phytotoxicity was conducted on the 21st day after the application in accordance with the standards as identified in Table 47. Symbol—represents “not tested”.

China jute (Ab) [12] = test: Test Example 4: crop plant selectivity by upland field soil treatment (cotton), herbicidal effects; format: in vivo; set-up: scale not given here; conditions: dose 6.3 g ai/10 a, evaluated 21st day after application
Protocol: as §4, §5

[13] = test system: common lambsquarters (Ch); test: as above; format: in vivo; set-up: scale not given here; conditions: dose 6.3 g ai/10 a, evaluated 21st day after application
Protocol: as §4, §5

green foxtail (Se) [14] = test: as above; format: in vivo; set-up: scale not given here; conditions: dose 6.3 g ai/10 a, evaluated 21st day after application
Protocol: as §4, §5

pale smartweed (Po) [15] = test: as above; format: in vivo; set-up: scale not given here; conditions: dose 6.3 g ai/10 a, evaluated 21st day after application
Protocol: as §4, §5

slender amaranth (Am) [16] = test: as above; format: in vivo; set-up: scale not given here; conditions: dose 6.3 g ai/10 a, evaluated 21st day after application
Protocol: as §4, §5

wheat (Tr) [17] = test: Test Example 5: crop plant selectivity by upland field soil treatment (wheat), phytotoxicity; format: in vivo; set-up: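 grade of crop injury; 5 = at least 90%; 4 = 70 to 90%; 3 = 50 to 70%; 2 = 30 to 50%; 1 = 10 to 30%; 0 = under 10%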; conditions: dose 6.3 g ai/10a, 21st day after application
Protocol: as §4
(§6) In a plastic pot (surface area: 600 cm^2) filled with sand, wheat (Tr), Diaitaria ciliaris (Di), green foxtail (Se), pale smartweed (Po), slender amaranth (Am), common lambsquarters (Ch) and China jute (Ab) were sown and covered with soil. […] The plants were then cultured in a green house, and the evaluation of the herbicidal effects and phytotoxicity was conducted on the 21st day after the application in accordance with the standards as identified in Table 47. Symbol—represents “not tested”.

China jute (Ab) [18] = test: Test Example 5: crop plant selectivity by upland field soil treatment (wheat), herbicidal effects; format: in vivo; set-up: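 grade of growth control; 5 = at least 90%; 4 = 70 to 90%; 3 = 50 to 70%; 2 = 30 to 50%; 1 = 10 to 30%; 0 = under 10%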; conditions: dose 6.3 g ai/10a, 21st day after application
Protocol: as §4, §6

[19] = test system: common lambsquarters (Ch); test: as above; format: in vivo; set-up: scale not given here; conditions: dose 6.3 g ai/10a, 21st day after application
Protocol: as §4, §6

green foxtail (Se) [20] = test: as above; format: in vivo; set-up: scale not given here; conditions: dose 6.3 g ai/10a, 21st day after application
Protocol: as §4, §6

pale smartweed (Po) [21] = test: as above; format: in vivo; set-up: scale not given here; conditions: dose 6.3 g ai/10a, 21st day after application
Protocol: as §4, §6

slender amaranth (Am) [22] = test: as above; format: in vivo; set-up: scale not given here; conditions: dose 6.3 g ai/10a, 21st day after application
Protocol: as §4, §6

soybean (Gl) = test: Test Example 6: crop plant selectivity by upland field soil treatment (soybean), phytotoxicity; format: in vivo; set-up: scale not given here; conditions: dose 6.3 g ai/10a, 21st day after application
Protocol: as §4
(§7) In a plastic pot (surface area: 600 cm^2) filled with sand, soybean (Gl), Diaitaria ciliaris (Di), green foxtail (Se), Johnsongrass (So), pale smartweed (Po), slender amaranth (Am), common lambsquarters (Ch) and China jute (Ab) were sown and covered with soil. […] The plants were then cultured in a green house, and the evaluation of the herbicidal effects and phytotoxicity was conducted on the 21st day after the application in accordance with the standards as identified in Table 47. Symbol—represents “not tested”.

China jute (Ab) [23] = test: Test Example 6: crop plant selectivity by upland field soil treatment (soybean), herbicidal effects; format: in vivo; set-up: scale not given here; conditions: dose 6.3 g ai/10a, 21st day after application
Protocol: as §4, §7

[24] = test system: common lambsquarters (Ch); test: as above; format: in vivo; set-up: scale not given here; conditions: dose 6.3 g ai/10a, 21st day after application
Protocol: as §4, §7

green foxtail (Se) [25] = test: as above; format: in vivo; set-up: scale not given here; conditions: dose 6.3 g ai/10a, 21st day after application
Protocol: as §4, §7

pale smartweed (Po) [26] = test: as above; format: in vivo; set-up: scale not given here; conditions: dose 6.3 g ai/10a, 21st day after application
Protocol: as §4, §7

slender amaranth (Am) [27] = test: as above; format: in vivo; set-up: scale not given here; conditions: dose 6.3 g ai/10a, 21st day after application
Protocol: as §4, §7

wheat (Tr) [28] = test: Test Example 9: crop plant selectivity by upland field foliage treatment (wheat), phytotoxicity; conditions: dose 1.6 g ai/10a, 14th day after treatment
Protocol: (§8) (Test on Crop Plant Selectivity by Upland Field Foliage Treatment)
(§9) In a plastic pot (surface area: 600 cm^2) filled with sand, wheat (Tr), pale smartweed (Po), slender amaranth (Am), common lambsquarters (Ch) and China jute (Ab) were sown and cultured in a green house for 2 weeks. […] The plants were then cultured in a green house, and the evaluation of the herbicidal effects and phytotoxicity was conducted on the 14th day after the treatment in accordance with the standards as identified in Table 47.

China jute (Ab) [29] = test: Test Example 9: crop plant selectivity by upland field foliage treatment (wheat), herbicidal effects; format: in vivo; set-up: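 grade of growth control; 5 = at least 90%; 4 = 70 to 90%; 3 = 50 to 70%; 2 = 30 to 50%; 1 = 10 to 30%; 0 = under 10%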; conditions: dose 1.6 g ai/10a, 14th day after treatment
Protocol: as §8, §9

[30] = test system: common lambsquarters (Ch); test: as above; format: in vivo; set-up: scale not given here; conditions: dose 1.6 g ai/10a, 14th day after treatment
Protocol: as §8, §9

pale smartweed (Po) [31] = test: as above; format: in vivo; set-up: scale not given here; conditions: dose 1.6 g ai/10a, 14th day after treatment
Protocol: as §8, §9

slender amaranth (Am) [32] = test: as above; format: in vivo; set-up: scale not given here; conditions: dose 1.6 g ai/10a, 14th day after treatment
Protocol: as §8, §9

For `CCN1C(=O)COc2cc(F)c(-c3ccc(C(F)(F)F)n(C)c3=O)cc21` [Compound 2-15], the “Herbicidal effects Ec” value (barnyardgrass (Ec) [1]) was 5, the “Herbicidal effects Sc” value (bulrush (Sc)) was 5 and the “Herbicidal effects Mo” value (monochoria (Mo)) was 5. For the same compound, the “Herbicidal effects Di” value (Digitaria ciliaris (Di)) was 5, the “Herbicidal effects Ec” value (barnyardgrass (Ec) [2]) was 5 and the “Herbicidal effects Ch” value [3] was 5. The “Herbicidal effects Po” value (pale smartweed (Po) [4]) was 5, the “Herbicidal effects Ci” value (rice flatsedge (Ci) [5]) was 5 and the “Herbicidal effects Am” value (slender amaranth (Am) [6]) was 5. For the same compound, the “Herbicidal effects Di” value (Diaitaria ciliaris (Di)) was 5, the “Herbicidal effects Ec” value (barnyardgrass (Ec) [7]) was 5 and the “Herbicidal effects Ch” value [8] was 5. The “Herbicidal effects Po” value (pale smartweed (Po) [9]) was 5, the “Herbicidal effects Ci” value (rice flatsedge (Ci) [10]) was 5 and the “Herbicidal effects Am” value (slender amaranth (Am) [11]) was 5. For the same compound, the “Phytotoxicity Go” value (cotton (Go)) was 0, the “Herbicidal effects Ab” value (China jute (Ab) [12]) was 5 and the “Herbicidal effects Ch” value [13] was 5. The “Herbicidal effects Se” value (green foxtail (Se) [14]) was 5, the “Herbicidal effects Po” value (pale smartweed (Po) [15]) was 5 and the “Herbicidal effects Am” value (slender amaranth (Am) [16]) was 5. The “Phytotoxicity Tr” value (wheat (Tr) [17]) was 1, the “Herbicidal effects Ab” value (China jute (Ab) [18]) was 5 and the “Herbicidal effects Ch” value [19] was 5. The “Herbicidal effects Se” value (green foxtail (Se) [20]) was 5, the “Herbicidal effects Po” value (pale smartweed (Po) [21]) was 5 and the “Herbicidal effects Am” value (slender amaranth (Am) [22]) was 5. The “Phytotoxicity Gl” value (soybean (Gl)) was 1, the “Herbicidal effects Ab” value (China jute (Ab) [23]) was 5 and the “Herbicidal effects Ch” value [24] was 5. The “Herbicidal effects Se” value (green foxtail (Se) [25]) was 5, the “Herbicidal effects Po” value (pale smartweed (Po) [26]) was 5 and the “Herbicidal effects Am” value (slender amaranth (Am) [27]) was 5. For the same compound, the “Phytotoxicity Tr” value (wheat (Tr) [28]) was 2, the “Herbicidal effects Ab” value (China jute (Ab) [29]) was 5 and the “Herbicidal effects Ch” value [30] was 5. For the same compound, the “Herbicidal effects Po” value (pale smartweed (Po) [31]) was 5 and the “Herbicidal effects Am” value (slender amaranth (Am) [32]) was 5.
